Test results from patent US20090181942A1, “TRICYCLIC COMPOUNDS” (DAIICHI SANKYO COMPANY, LIMITED, priority 2005, published 2009).

Tests used:
[1] = target: T1, rat squalene synthetase (Rattus norvegicus, UniProt Q02769); assay: Rat squalene synthetase inhibitory activity (rat liver microsomal fraction, [3H]farnesyl-pyrophosphate); format: biochemical; conditions: rat liver microsomal fraction 30 μg/mL, 5 μM [3H]farnesyl-pyrophosphate, 37° C., 20 minutes; read-out: IC50 (squalene synthetase inhibitory activity: concentration inhibiting 50% of radioactivity incorporated into squalene)
T1 construct: the final sediment thus obtained was used as a microsomal fraction for the measurement of enzymatic activity; from tissue; host or cells: liver of eight-week-old SD male rats, washed 105,000 x g microsomal fraction
T1 sequence (Q02769 1-416): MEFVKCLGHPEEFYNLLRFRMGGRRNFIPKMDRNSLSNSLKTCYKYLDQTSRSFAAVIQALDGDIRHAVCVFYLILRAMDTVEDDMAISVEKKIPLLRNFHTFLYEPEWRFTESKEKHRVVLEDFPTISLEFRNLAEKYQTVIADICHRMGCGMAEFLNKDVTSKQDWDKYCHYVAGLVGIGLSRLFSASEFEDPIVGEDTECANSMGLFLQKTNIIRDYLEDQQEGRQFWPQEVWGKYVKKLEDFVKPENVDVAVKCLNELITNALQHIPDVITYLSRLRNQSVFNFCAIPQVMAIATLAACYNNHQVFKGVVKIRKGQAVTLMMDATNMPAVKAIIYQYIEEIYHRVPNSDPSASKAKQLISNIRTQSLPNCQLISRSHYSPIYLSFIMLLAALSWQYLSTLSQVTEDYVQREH
Procedure: 1. Rat Squalene Synthetase Inhibitory Activity
(1) Preparation of Enzyme Source
As an enzyme source, a microsomal fraction prepared from a rat liver was employed. First, eight-week-old SD male rats were subjected to laparotomy under anesthesia with pentobarbital sodium. […] To the liver thus obtained were added 0.3M sucrose, 1 mM dithiothreitol (DTT), 1 mM sodium ethylenediamine tetraacetate (EDTA) and various protease inhibitors. The resulting mixture was homogenized in the presence of a 10 mM phosphate buffer adjusted to pH 7.4 and centrifuged for 5 minutes at 2,000×g and for 15 minutes at 10,000×g. As the protease inhibitor, phenylmethanesulfonyl fluoride (PMSF), leupeptin and aprotinin were added to give the final concentrations of 1 mM, 10 μM, and 5 μg/mL, respectively. The supernatant after centrifugation was centrifuged further at 105,000×g for 60 minutes. The sediment thus obtained was suspended in a 10 mM phosphate buffer (pH 7.4) containing 1 mM DTT, 1 mM EDTA, and the above-described protease inhibitors and the resulting suspension was centrifuged at 105,000×g for 30 minutes, which operation was performed twice. After washing, the final sediment thus obtained was used as a microsomal fraction for the measurement of enzymatic activity.
(2) Measurement of Squalene Synthetase Inhibitory Activity
Squalene synthetase activity was measured in accordance with the method of Schechter, et al., described in Journal of Biological Chemistry, 267, 8628-8635 (1992). Described specifically, the compound of the present invention dissolved in water or dimethylsulfoxide (DMSO) was added to an enzyme reaction mixture (total amount: 50 μl) containing 5 mM reduced nicotinamide adenine dinucleotide phosphate (NADPH), 5 mM 3-[(3-cholamidopropyl)dimethylammonio]propanesulfonic acid (CHAPS), 10 mM potassium fluoride, 10 mM magnesium chloride, 10 mM DTT, 1 μM/mL NB-598 (squalene epoxydase inhibitor, Journal of Biological Chemistry, 265, 18075-180788 (1990)), 50 mM HEPES buffer (pH 7.4)), 30 μg/mL of the rat liver microsomal fraction, and 5 μM [^3H] farnesyl-pyrophosphate and the resulting mixture was reacted at 37° C. for 20 minutes (enzyme reaction was started by adding [^3H]farnesyl-pyrophosphate to the enzyme reaction mixture which had been incubated in advance at 37° C. for 10 minutes). To the enzyme reaction mixture was added 5 μl of 1M EDTA (pH 9.2) to terminate the enzyme reaction, followed by the addition of 5 μl of a 0.5% squalene ethanol solution. After spotting of a 40 μl portion of the resulting mixture on a plastic sheet for thin layer chromatography, development with 5% toluene-95% hexane and drying, these pots were visualized by exposure to iodine vapor and the band of squalene was identified. The spots were cut out with scissors and put in a vial container. To the container was added 10 mL of Aquasol-2 (product of New England Nuclear Research Products, USA) and radioactivity was measured by a liquid scintillation counter. The squalene synthetase inhibitory activity was expressed as a concentration (IC50) of the compound inhibiting 50% of radioactivity incorporated into squalene.

[2] = tested on: liver-cholesterol synthesis; assay: Rat single-dose liver-cholesterol synthesis inhibitory effect; format: in vivo; conditions: Wistar male rats, 3 mg/kg orally, 14C-mevalonic acid i.p. one hour later, liver taken one hour after that, relative to control group
Procedure: 2. Rat Single-Dose Liver-Cholesterol Synthesis Inhibitory Effect
A rat single-dose liver-cholesterol synthesis inhibitory effect was measured as described below.
To each the compounds of the present invention was added a necessary amount of a 0.5% methyl cellulose solution immediately before use. Then, an equivalent molar amount of sodium hydroxide or sodium hydrogen carbonate was added to dissolve or suspend it in the resulting solution. To 6-week-old Wistar male rats were orally administered each of the compounds of the present invention (3 mg/kg), while only a 0.5% methyl cellulose solution was administered to a control group. One hour later, physiological saline of mevalonic acid (5 μCi/5 mL/kg) labeled with a radioisotope ^14C was intraperitoneally administered. The rats were sacrificed one hour later. To 1 g of the liver thus obtained from the rats was added 5 mL of a 15% KOH ethanol solution and the resulting mixture was left to stand for 15 hours. After heating at 75° C. for 2 hours, the reaction mixture was extracted with 5 mL of water and 10 mL of petroleum ether. The petroleum ether layer was collected, evaporated to dryness and then dissolved in 50 μl of a chloroform:acetone=2:1 solution. The cholesterol band was separated by silica gel thin layer chromatography (Art.5748, toluene:ethyl acetate=3:1) and cut out. It was put in a vial container, followed by the addition of 10 mL of Aquasol-2 (product of Packard BioScience Company). The radioactivity was measured using a liquid scintillation counter. A ratio of the radioactivity relative to that of a control group was determined and liver-cholesterol synthesis inhibitory activity (%) was calculated.

Row | IC50 [1] | Structure (SMILES) | Liver-cholesterol synthesis inhibitory effect [2]
1 | 3.9 nM | COc1cccc([C@H]2O[C@H](CCn3cc(C(=O)O)cn3)c3nccn3-c3ccc(Cl)cc32)c1OC [Example 263, 1-{2-[(4R,6S)-8-Chloro-6-(2,3-dimethoxyphenyl)-4H,6H-imidazo[1,2-a][4,1]benzoxazepin-4-yl]ethyl}-1H-pyrazole-4-carboxylic Acid] | 84%
2 | 4.6 nM | COc1cccc([C@H]2O[C@H](Cc3ncc(CCC(=O)O)s3)c3nnc(C(F)(F)F)n3-c3ccc(Cl)cc32)c1OC (relative stereo) [Example 322, 3-({2-[(trans)-8-Chloro-6-(2,3-dimethoxyphenyl)-1-(trifluoromethyl)-4H,6H-[1,2,4]triazolo[4,3-a][4,1]benzoxazepin-4-yl]methyl}-1,3-thiazol-5-yl)propanoic Acid] | 76%
3 | 4.9 nM | COC(=O)CCc1cnc(C[C@H]2S[C@H](c3cccc(OC)c3OC)c3cc(Cl)ccc3-n3c2nnc3C(F)(F)F)s1 (relative stereo) [Example 330, Methyl 3-({2-[(trans)-8-chloro-6-(2,3-dimethoxyphenyl)-1-(trifluoromethyl)-4H,6H-[1,2,4]triazolo[4,3-a][4,1]benzothiazepin-4-yl]methyl}-1,3-thiazol-5-yl)propanoate] | 75%
4 | 0.56 nM | O=C(O)CC1CCN(C(=O)CC2OC(c3cccc4ccccc34)c3cc(Cl)ccc3-n3cccc32)CC1 (stereo not drawn) [Example 210, 2-(1-{2-[8-Chloro-6-(1-naphthyl)-4H,6H-pyrrolo[1,2-a][4,1]benzoxazepin-4-yl]acetyl}-4-piperidinyl)acetic Acid] | –
5 | – | COc1cccc([C@H]2O[C@H](CCn3nnc(CC(=O)O)n3)c3cccn3-c3c(F)cc(Cl)cc32)c1OC [Example 21, 2-(2-{2-[(4R,6S)-8-Chloro-6-(2,3-dimethoxyphenyl)-10-fluoro-4H,6H-pyrrolo[1,2-a][4,1]benzoxazepin-4-yl]ethyl}-2H-1,2,3,4-tetrazol-5-yl)acetic Acid] | 68%
6 | 4.6 nM | COc1cccc(C2SC(CC(=O)O)c3nnc(C(F)(F)F)n3-c3ccc(Cl)cc32)c1OC (stereo not drawn) [Example 341, 2-[8-Chloro-6-(2,3-dimethoxyphenyl)-1-(trifluoromethyl)-4H,6H-[1,2,4]triazolo[4,3-a][4,1]benzothiazepin-4-yl]acetic Acid] | 90%

Row | Structure (SMILES) | IC50 [1] | Liver-cholesterol synthesis inhibitory effect [2]
7 | COc1cccc(C2SC(CC(=O)N3CCC(CC(=O)O)CC3)c3nnc(C(F)(F)F)n3-c3ccc(Cl)cc32)c1OC (single isomer, unassigned) [Example 343, 2-(1-{2-[8-Chloro-6-(2,3-dimethoxyphenyl)-1-(trifluoromethyl)-4H,6H-[1,2,4]triazolo[4,3-a][4,1]benzothiazepin-4-yl]acetyl}-4-piperidinyl)acetic Acid] | 7.6 nM | 80%
